Here are results for 27 molecules from ChEMBL document CHEMBL3232788, “1-(2-Hydroxy-2-methyl-3-phenoxypropanoyl)indoline-4-carbonitrile derivatives as potent and tissue selective androgen receptor modulators” (J Med Chem, 2014).

Active and inactive are the calls of the source. No cut-off for these calls is given here.

Series [1] concerns the target T1, Androgen receptor (Homo sapiens, UniProt P10275).
T1 sequence (P10275 whole entry): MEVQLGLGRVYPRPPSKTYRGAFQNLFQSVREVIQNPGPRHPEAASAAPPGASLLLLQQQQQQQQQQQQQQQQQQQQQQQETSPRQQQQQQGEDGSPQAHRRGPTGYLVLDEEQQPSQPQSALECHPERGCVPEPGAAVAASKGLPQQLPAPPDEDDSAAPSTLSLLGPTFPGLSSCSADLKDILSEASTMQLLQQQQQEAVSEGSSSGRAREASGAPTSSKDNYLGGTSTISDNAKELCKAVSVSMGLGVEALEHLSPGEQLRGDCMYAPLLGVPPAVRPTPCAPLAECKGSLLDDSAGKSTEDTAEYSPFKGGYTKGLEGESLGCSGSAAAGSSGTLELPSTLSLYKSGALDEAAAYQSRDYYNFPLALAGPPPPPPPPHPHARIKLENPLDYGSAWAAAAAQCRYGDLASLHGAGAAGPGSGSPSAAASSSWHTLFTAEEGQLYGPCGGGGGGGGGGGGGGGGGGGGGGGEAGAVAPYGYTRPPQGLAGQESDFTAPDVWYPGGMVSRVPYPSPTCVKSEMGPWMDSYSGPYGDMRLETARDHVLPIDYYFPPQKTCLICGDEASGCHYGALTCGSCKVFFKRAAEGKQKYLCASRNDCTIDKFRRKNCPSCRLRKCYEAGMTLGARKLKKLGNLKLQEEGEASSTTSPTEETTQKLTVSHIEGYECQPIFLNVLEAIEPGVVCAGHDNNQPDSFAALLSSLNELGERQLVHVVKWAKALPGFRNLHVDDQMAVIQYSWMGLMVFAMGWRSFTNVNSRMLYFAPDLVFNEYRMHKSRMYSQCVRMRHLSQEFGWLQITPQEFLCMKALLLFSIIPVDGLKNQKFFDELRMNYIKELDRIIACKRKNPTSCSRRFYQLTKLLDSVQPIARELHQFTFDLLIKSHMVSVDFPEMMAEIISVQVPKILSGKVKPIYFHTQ
Nature of the series: Agonist activity at human AR expressed in CV1 cells after 17 hrs by luciferase reporter gene assay. Type of series: cell-based, CV-1. A general note: Reporter assays use an easily measured gene product as a stand-in for the process of interest.

Series [2] deals with T1, Androgen receptor. Nature of the series: Displacement of [3H]mibolerone from full length human AR expressed in COS cells after 3.5 hrs by liquid scintillation counting. Type of series: cell-based.
For series [3], the target named is T1, Androgen receptor. The series is described as follows: Binding affinity to human AR NTD (1 to 561 aa) expressed in CV1 cells coexpressing human AR-LBD (644-919 aa) assessed as N/C-termini interaction by androgenic assay. Type of series: cell-based, CV-1.
Series [4] concerns Rattus norvegicus. The series is described as follows: Increase in levator ani muscle weight in orchidectomized Sprague-Dawley rat at 1 mg/kg, sc qd for 4 days relative to vehicle-treated control. Type of series: functional, organism-based. Also on record: dose 1 mg/kg.
Series [5] has as its system Rattus norvegicus. The series is described as follows: Increase in prostate tissue weight in orchidectomized Sprague-Dawley rat at 1 mg/kg, sc qd for 4 days relative to vehicle-treated control. Also noted: dose 1 mg/kg, route subcutaneous. Conditions: in vivo, 96 h. Type of series: ADME, organism-based, Prostate gland.
The test system of series [6] is Rattus norvegicus. The series is described as follows: Increase in seminal vesicle weight in orchidectomized Sprague-Dawley rat at 1 mg/kg, sc qd for 4 days relative to vehicle-treated control. Type of series: ADME, organism-based. Also on record: dose 1 mg/kg, route subcutaneous. The note with it: in vivo, 96 h.

As to `COc1ccc(OC[C@](C)(O)C(=O)N2CCc3c(C#N)cccc32)cc1`, the EC50 on Androgen receptor [1] was 8.6 nM; on Androgen receptor [3] it was 624 nM. Besides, at Androgen receptor [2], the IC50 came to 146 nM.

`C[C@](O)(COc1ccc(Cl)cc1)C(=O)N1CCc2c(C#N)cccc21`: the EC50 came to 3.4 nM on Androgen receptor [1] and 172 nM on Androgen receptor [3]. For the same molecule, on Androgen receptor [2], the IC50 is 36.5 nM.

With `C[C@](O)(COc1ccc(-c2cocn2)cc1)C(=O)N1CCc2c(C#N)cccc21`, the EC50 is 7.2 nM on Androgen receptor [1] and more than 10000 nM at Androgen receptor [3]. Besides, on Androgen receptor [2], the IC50 was 179 nM.

Regarding `C[C@](O)(COc1ccc(C#N)cc1)C(=O)N1CCc2c(C#N)cccc21`, the EC50 worked out at 1.8 nM at Androgen receptor [1] and 71.8 nM at Androgen receptor [3]. For the same molecule, the IC50 at Androgen receptor [2] is 16.4 nM.

Regarding `COc1cc(Cl)ccc1OC[C@](C)(O)C(=O)N1CCc2c(C#N)cccc21`, the EC50 at Androgen receptor [1] is 17.1 nM; at Androgen receptor [3], more than 10000 nM. The molecule further came in with an IC50 at Androgen receptor [2] of 366 nM.

Turning to `C[C@](O)(COc1ccc(F)cc1Br)C(=O)N1CCc2c(C#N)cccc21`, the half-maximal effective concentration (EC50) is 0.4 nM on Androgen receptor [1] and 39.5 nM at Androgen receptor [3]. On Androgen receptor [2], this molecule yielded a 50% inhibitory concentration (IC50) of 11.4 nM.

Consider `C[C@](O)(COc1ccccc1C(F)(F)F)C(=O)N1CCc2c(C#N)cccc21`, for which the values for the EC50 on Androgen receptor [1] and on Androgen receptor [3] were 1.7 nM and 372 nM, respectively. The molecule further registered a concentration for half-maximal inhibition (IC50) at Androgen receptor [2] of 60.9 nM.

On to `COc1cc(C#N)ccc1OC[C@](C)(O)C(=O)N1CCc2c(C#N)cccc21`, for which the EC50 on Androgen receptor [1] was determined as 7.6 nM; at Androgen receptor [3] it was 2120 nM. Moreover, the 50% inhibitory concentration (IC50) at Androgen receptor [2] was found to be 16.1 nM.

With `C[C@](O)(COc1ccc(C#N)cc1F)C(=O)N1CCc2c(C#N)cccc21`, the 50% effective concentration (EC50) on Androgen receptor [1] worked out at 0.039 nM; on Androgen receptor [3], 0.14 nM. In addition, the IC50 on Androgen receptor [2] was found to be 3.2 nM.

For `C[C@](O)(COc1ccc(C(F)(F)F)cc1)C(=O)N1CCc2c(C#N)cccc21`, the half-maximal effective concentration (EC50) was 1.8 nM on Androgen receptor [1] and more than 10000 nM on Androgen receptor [3]. Further, the IC50 at Androgen receptor [2] is 33.1 nM.

On to `C[C@](O)(COc1ccc(C#N)cc1Br)C(=O)N1CCc2c(C#N)cccc21`, for which the concentration giving a half-maximal response (EC50) at Androgen receptor [1] is 0.06 nM; on Androgen receptor [3], 0.41 nM. The molecule further showed an IC50 at Androgen receptor [2] of 4.8 nM.

`C[C@](O)(COc1ccccc1F)C(=O)N1CCc2c(C#N)cccc21`: the EC50 at Androgen receptor [1] is 14.8 nM; at Androgen receptor [3] it was more than 10000 nM. The molecule further displayed an IC50 on Androgen receptor [2] of 10.1 nM.

On to `C[C@](O)(COc1ccc(F)cc1C#N)C(=O)N1CCc2c(C#N)cccc21`, for which the EC50 turned out to be 0.074 nM on Androgen receptor [1] and 0.74 nM on Androgen receptor [3]. At Androgen receptor [2], this molecule yielded an IC50 of 9.1 nM.

As to `C[C@](O)(COc1ccccc1Cl)C(=O)N1CCc2c(C#N)cccc21`, the EC50 at Androgen receptor [1] worked out at 6.1 nM; on Androgen receptor [3] it was 4820 nM. Moreover, the IC50 on Androgen receptor [2] was 56.3 nM.

Take `C[C@](O)(COc1cccc(Cl)c1)C(=O)N1CCc2c(C#N)cccc21`: the EC50 on Androgen receptor [1] was 275 nM; on Androgen receptor [3] it was more than 10000 nM. The molecule further returned an IC50 on Androgen receptor [2] of 107 nM.

On to `C[C@](O)(COc1cccc(F)c1)C(=O)N1CCc2c(C#N)cccc21`, for which the 50% effective concentration (EC50) on Androgen receptor [1] is 37.4 nM; on Androgen receptor [3], 1530 nM. This molecule also showed an IC50 at Androgen receptor [2] of 34.2 nM.

For the molecule `COc1ccc(OC[C@](C)(O)C(=O)N2CCc3c(C#N)cccc32)c(F)c1`, the figures for the concentration for a half-maximal effect (EC50) at Androgen receptor [1] and at Androgen receptor [3] were 2.9 nM and more than 10000 nM, respectively. Further, on Androgen receptor [2], the IC50 was determined as 427 nM.

Consider `C[C@](O)(COc1ccc(Br)cc1)C(=O)N1CCc2c(C#N)cccc21`, for which the values for the concentration giving a half-maximal response (EC50) on Androgen receptor [1] and on Androgen receptor [3] were 0.34 nM and 7.6 nM, respectively. Moreover, on Androgen receptor [2], the IC50 came to 2.4 nM.

As for `COC(=O)c1ccc(OC[C@](C)(O)C(=O)N2CCc3c(C#N)cccc32)cc1`, the EC50 at Androgen receptor [1] was 6.8 nM; at Androgen receptor [3] it was more than 10000 nM. This molecule also showed a half-maximal inhibitory concentration (IC50) at Androgen receptor [2] of 133 nM.

In the case of `CCC(=O)O[C@H]1CC[C@H]2[C@@H]3CCC4=CC(=O)CC[C@]4(C)[C@H]3CC[C@]12C` [TESTOSTERONE PROPIONATE], in the series on Rattus norvegicus [4], the result was Active. Also, the Activity entry with Rattus norvegicus [5] and with Rattus norvegicus [6] was “Toxic” throughout.

On to `C[C@](O)(COc1ccccc1C#N)C(=O)N1CCc2c(C#N)cccc21`, for which the concentration for a half-maximal effect (EC50) on Androgen receptor [1] is 0.15 nM; at Androgen receptor [3], 0.77 nM. Besides, the IC50 at Androgen receptor [2] turned out to be 14.3 nM.

Consider `C[C@](O)(COc1ccc(Cl)cc1Cl)C(=O)N1CCc2c(C#N)cccc21`, for which the EC50 amounted to 0.25 nM on Androgen receptor [1] and 1.4 nM at Androgen receptor [3]. On Androgen receptor [2], this molecule yielded a half-inhibitory concentration (IC50) of 9.1 nM.

As to `C[C@](O)(COc1ccc(Br)cc1F)C(=O)N1CCc2c(C#N)cccc21`, the EC50 on Androgen receptor [1] worked out at 0.11 nM; on Androgen receptor [3], 0.93 nM. At Androgen receptor [2], this molecule had an IC50 of 36.8 nM.

As for `C[C@](O)(COc1ccccc1)C(=O)N1CCc2c(C#N)cccc21`, the EC50 on Androgen receptor [1] was 689 nM; on Androgen receptor [3] it was more than 10000 nM. For the same molecule, at Androgen receptor [2], the concentration for half-maximal inhibition (IC50) turned out to be 99.5 nM.

On to `COc1ccc(OC[C@](C)(O)C(=O)N2CCc3c(C#N)cccc32)c(Cl)c1`, for which the results for the concentration for a half-maximal effect (EC50) at Androgen receptor [1] and on Androgen receptor [3] were 0.61 nM and 54.1 nM, respectively. For the same molecule, the IC50 at Androgen receptor [2] was 3.5 nM.

As to `Cc1cc(F)ccc1OC[C@](C)(O)C(=O)N1CCc2c(C#N)cccc21`, the EC50 amounted to 1.1 nM on Androgen receptor [1] and 72.2 nM at Androgen receptor [3]. Further, the concentration for half-maximal inhibition (IC50) at Androgen receptor [2] was determined as 10.7 nM.

On to `C[C@](O)(COc1ccc(Cl)cc1F)C(=O)N1CCc2c(C#N)cccc21`, for which the half-maximal effective concentration (EC50) on Androgen receptor [1] was determined as 0.28 nM; on Androgen receptor [3], 0.85 nM. On Androgen receptor [2], this molecule had an IC50 of 5 nM.

A word on the EC50: it is the concentration giving half of the maximal effect. In general, IC50 refers to the midpoint of a concentration-inhibition curve.
